These are literature values, as cited in patent US9969773B2, “Polymers, pharmaceutical compositions and methods of synthesizing the same” (NEW YORK UNIVERSITY, priority 2014, dated 2018).

`CC[C@H](C)[C@H](NC(=O)[C@H](CCC(=O)O)NC(=O)[C@H](CO)NC(=O)[C@@H](NC(=O)[C@@H](N)CO)C(C)C)C(=O)N[C@@H](CCC(N)=O)C(=O)N[C@@H](CC(C)C)C(=O)N[C@@H](CCSC)C(=O)N[C@@H](Cc1cnc[nH]1)C(=O)N[C@@H](CC(N)=O)C(=O)N[C@@H](CC(C)C)C(=O)NCC(=O)N[C@@H](CCCCN)C(=O)N[C@@H](Cc1cnc[nH]1)C(=O)N[C@@H](CC(C)C)C(=O)N[C@@H](CC(N)=O)C(=O)N[C@@H](CO)C(=O)N[C@@H](CCSC)C(=O)N[C@@H](CCC(=O)O)C(=O)N[C@@H](CCCN=C(N)N)C(=O)N[C@H](C(=O)N[C@@H](CCC(=O)O)C(=O)N[C@@H](Cc1c[nH]c2ccccc12)C(=O)N[C@@H](CC(C)C)C(=O)N[C@@H](CCCN=C(N)N)C(=O)N[C@@H](CCCCN)C(=O)N[C@@H](CCCCN)C(=O)N[C@@H](CC(C)C)C(=O)N[C@@H](CCC(N)=O)C(=O)N[C@@H](CC(=O)O)C(=O)N[C@H](C(=O)N[C@@H](Cc1cnc[nH]1)C(=O)N[C@@H](CC(N)=O)C(=O)N[C@@H](Cc1ccccc1)C(=O)O)C(C)C)C(C)C` [PTH (1-34), parathyroid hormone (1-34)]: the half-life in serum is approximately 5 min.
